Reference: US20230364084A1, “METHODS FOR PREVENTING OR TREATING CONDITIONS RELATED TO PIKFYVE ACTIVITY” (The Regents of the University of Michigan, priority 2020, published 2023)

Key:
DU145 cells = assay: cellular vacuolization morphology with autophagy inhibitors; assay type: cell-based, human; conditions: combination with ESK981, six hours
Excerpt: The nature of the ESK981-associated cellular vacuolization was investigated in combination with various autophagic pathway inhibitors.

PC3 and DU145 cells = assay: autophagic flux detection (GFP-LC3-RFP-LC3ΔG probe); assay type: cell-based, human; conditions: PC3 or DU145 cells, 24 hours
Method: (§1) For autophagic flux detection, 10,000 cells were plated in 96-well plates and incubated with various compounds in complete medium for 24 hours. GFP and RFP fluorescence intensities were measured on a TECAN M1000 plate reader.

CXCL10 in VCaP cells = assay: human CXCL10 ELISA of conditioned medium; assay type: cell-based; conditions: VCaP cells, 24 hours
Method: Conditioned medium was collected after 24 hours of drug incubation. ELISA was performed using a human CXCL10 ELISA kit (Cat No. KAC2361, ThermoFisher), or a mouse CXCL10 ELISA kit (Cat No. ab214563, Abcam) according to the manufacturer's instructions.

[1] = system: B cell non-Hodgkin's lymphoma; conditions: cited from earlier work
[2] = system: lysosomes in VCaP, LNCaP, PC3 and DU145 cells; assay: LysoTracker Green flow cytometry; assay type: cell-based, human; conditions: bafilomycin A1 100 nM with ESK981 300 nM, 24 hours
Method: Cells were grown in 6-well plates and treated with various drugs. After 24 hours, cells were stained with LysoTracker® Green DND-26 (Invitrogen), and green fluorescence signal was analyzed by flow cytometry.

[3] = system: GFP-LC3-RFP-LC3ΔG-expressing Myc-CaP cells; assay: autophagic flux detection in Myc-CaP cells; assay type: cell-based, mouse; conditions: 24 hours
Method: as §1

[4] = system: prostate cancer cell lines (VCaP, LNCaP, 22RV1, LNCaP-AR, PC3, DU145); assay: long-term survival assay (14 days, crystal violet); assay type: cell-based, human; conditions: panel of prostate cancer cell lines, two weeks
Method: Single cell suspensions were seeded into 96-well plates at a density of 1,000-30,000 cells per well. Long-term survival was determined after 14 days of drug incubation. Viable cells were fixed with 4% formaldehyde and subsequently stained with 1% crystal violet. IC50 was calculated using GraphPad Prism.

[5] = system: DU145 prostate cancer cells; assay: cell viability screen with a 167-compound tyrosine kinase inhibitor library; assay type: cell-based, human; conditions: 300 nM
Method: FIG. 1: ESK981 inhibits the growth of diverse preclinical models of prostate cancer and is associated with a unique vacuolization morphology. • (a) The percentage viabilities of DU145 cells treated with 300 nM ESK981 or 167 other tyrosine kinase inhibitors when compared to a vehicle control. The top five most inhibitory compounds, as well as cabozantinib and crizotinib (highlighted in orange), and their respective targets are listed in the table. ESK981 is highlighted in red. • (b) Morphological differences of nuclear-restricted RFP-expressing DU145 cells treated with 300 nM ESK981, crizotinib, or cabozantinib. • (c) A long-term survival assay was used to calculate the half-maximum inhibitory concentration (IC50) after two weeks of incubation with the serial dilutions of indicated drugs. (Top) Long-term survival assays of VCaP prostate cancer cells exposed to MTKIs. (Bottom) IC50 of ESK981, crizotinib, and cabozantinib in a panel of prostate cancer cell lines. • (d) ESK981 was effective against enzalutamide (Enza)-resistant cell lines. […] Long-term survival (two weeks) was assayed by absorbance of crystal violet at OD590. • (e) VCaP-RFP cells were cultured for three days in ultralow attachment plates to form 3D tumor spheroids prior to the indicated drug treatments. […] Fluorescence intensity of 3D spheroids was measured by IncuCyte ZOOM. • (f) Castration-resistant VCaP tumors were established subcutaneously in castrated SCID mice, and mice were randomized into three groups, which received vehicle, 30 mg/kg, or 60 mg/kg ESK981 by oral gavage once per day for the indicated dosing schedule. Tumor volumes were monitored by a digital caliper twice per week. Data were analyzed by unpaired t test and presented as mean±SEM. *p<0.05; **p<0.01. • (g) AR^+ prostate patient-derived xenograft (PDX) MDA-PCa-146-12 were implanted subcutaneously in non-castrated SCID mice, and mice were randomized into two groups receiving either once daily vehicle or 30 mg/kg ESK981 for five days each week. […] Tumor volumes were monitored twice per week. […]

[6] = system: LC3-II in prostate cancer cell lines; assay: LC3 lipidation western blot; assay type: cell-based, human; conditions: VCaP cells, 24 hours
Method: Cell lysates were harvested in Pierce RIPA Lysis buffer (Thermo Scientific) containing protease inhibitor cocktail tablets (Roche) and phosphatase inhibitor cocktail (Millipore). Protein concentration was measured using the DC Protein Assay (Bio-Rad) to ensure an equal amount of protein was loaded onto a gel. The denatured lysates were separated on NuPage 4-12% Bis-Tris Midi Protein gels (Novex) and transferred to 0.45-μm PVDF transfer membrane (Immobilon) using a TransBlot Turbo dry transfer machine (Bio-Rad). The membrane was incubated in blocking buffer (5% non-fat dry milk, Tris-buffered saline with 0.1% Tween 20) for 1 hour at room temperature. The membrane was then incubated with the listed antibodies for 1 hour at room temperature, followed by overnight incubation at 4° C. Chemiluminescent detection using ECL Prime (Amersham) and HyBlot CL autoradiography film (Denville Scientific) was used to visualize the blots. Antibodies used in the immunoblotting assays were against ATG5 (Cat No. 12994S, Cell Signaling Technology), ATG7 (Cat No. 8558S, Cell Signaling Technology), ULK1 (Cat No. 8054S, Cell Signaling Technology), Beclin1 (Cat No. 4122S, Cell Signaling Technology), FIP200 (Cat No. 12436S, Cell Signaling Technology), LC3A/B (Cat No. 127415, Cell Signaling Technology), PIKfyve (Cat No. AF7885, R&D Systems), and GAPDH (Cat No. 3683S, Cell Signaling Technology).

advanced prostate cancer = conditions: two phase III trials; cited from earlier work
metastatic CRPC (mCRPC) = conditions: men with metastatic CRPC; cited from earlier work

Cn1cnc(N)c2ncnc1-2 [3-methyladenine]
effect on the cellular vacuolization effects of ESK981 (DU145 cells): partially negated

CCC(=O)N1CCN(c2ccc(-n3c(=O)ccc4cnc5ccc(-c6cnc7ccccc7c6)cc5c43)cc2C(F)(F)F)CC1 [Torin1]
autophagic flux (GFP/RFP ratio) (PC3 and DU145 cells): decreased the GFP/RFP ratio
CXCL10 induction / secretion (CXCL10 in VCaP cells): marginally increased CXCL10 secretion, but only at higher concentrations

Cc1cccc(/C=N/Nc2cc(N3CCOCC3)nc(OCCc3ccccn3)n2)c1 [apilimod]
tumor inhibition [1]: tumor inhibitory effects

CO/C1=C\C(C)=C\[C@@H](C)[C@@H](O)[C@@H](C)C/C(C)=C/C=C/[C@H](OC)[C@@H]([C@@H](C)[C@@H](O)[C@H](C)[C@@]2(O)C[C@@H](O)[C@H](C)[C@@H](C(C)C)O2)OC1=O [bafilomycin A1]
effect on the ESK981-increased lysosome quantity [2]: readily neutralized
autophagic flux (GFP/RFP ratio) (PC3 and DU145 cells): low autophagic flux
effect on the cellular vacuolization effects of ESK981 (DU145 cells): completely blocked
autophagic flux [3]: inhibited

CCN(CC)CCCC(C)Nc1ccnc2cc(Cl)ccc12 (centres unmarked) [chloroquine]
effect on the cellular vacuolization effects of ESK981 (DU145 cells): completely blocked
autophagic flux [3]: inhibited

C[C@@H](Oc1cc(-c2cnn(C3CCNCC3)c2)cnc1N)c1c(Cl)ccc(F)c1Cl [crizotinib, reference compound]
IC50 in words [4]: micromolar
growth inhibition (cell viability) [5]: no such growth inhibitory effects
induction of LC3-II ([6]; 300 nM): did not induce an increase in LC3-II
induction of LC3-II ([6]; 1 μM): only weakly induced an increase in LC3-II

Nc1ccn([C@@H]2O[C@H](CO)[C@@H](O)C2(F)F)c(=O)n1 [gemcitabine]
CXCL10 induction / secretion (CXCL10 in VCaP cells): robust CXCL10 inducer

ipilimumab: CTLA4 inhibitor
overall survival (advanced prostate cancer): failed to improve overall survival

pembrolizumab: PD-1 inhibitor
response rates (metastatic CRPC (mCRPC)): 3-5%
